Our source for the outcome values is PubChem BioAssay AID1205 (EPA DSSTox, 2008).

A short description of the data set: DSSTox (CPDBAS) Carcinogenic Potency Database Summary MultiCellCall Results. The note with it: animal carcinogenicity bioassays, multi-cell call summary. A digest of the protocol: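 Summary call drawn from chronic long-term cancer bioassays in rats, mice, hamsters, dogs and nonhuman primates, using the most positive result per sex-species. Score: multispecies=50, multisex=30, multisite=20, summed for combinations.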

The source made the active and inactive calls.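 Rule for the calls: active = tumour findings in long-term animal cancer tests in more than one sex, species or organ; inactive = no tumour finding and more than one negative test.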

In the case of `ClC/C=C/CCl`, the outcome was “active; multisex active”.

With `COc1ccc2c3c1O[C@H]1[C@@H](O)C=C[C@H]4[C@@H](C2)N(C)CC[C@@]341`, the outcome was “inactive; multisex inactive; multispecies inactive”.

Consider `O=NN(CC(=O)O)CC(=O)O`, for which the outcome is “inactive; multisex inactive”.

In the case of `CCCCCCc1ccc(O)cc1O`, the outcome was “inactive; multisex inactive; multispecies inactive”.

As for `Cc1ccc(/C(=C\CN2CCCC2)c2ccccn2)cc1`, the outcome is “inactive; multisex inactive; multispecies inactive”.

For the compound `CC(C)O`, the outcome is “inactive; multisex inactive; multispecies inactive”.

`CN1[C@@H]2CC(OC(=O)[C@@H](CO)c3ccccc3)C[C@H]1[C@@H]1O[C@@H]12` (some centres undefined): the outcome is “inactive; multisex inactive; multispecies inactive”.

In the case of `OCC(CO)(CBr)CBr`, the outcome is “active; multisite active; multisex active; multispecies active”.

On to `COc1cc2c(c3oc(=O)c4c(c13)CCOC4=O)C1C=COC1O2` (centres undefined), for which the outcome was “active; multisite active; multispecies active”.

Consider `CCCN(CCC)N=O`, for which the outcome was “active; multisite active; multispecies active”.

Turning to `CCOc1ccc(NC(C)=O)cc1`, the outcome was “active; multisite active; multisex active; multispecies active”.

With `NNc1nc(-c2ccc([N+](=O)[O-])o2)cs1`, the outcome was “active; multisite active; multispecies active”.

As for `Cc1ccc(N)cc1`, the outcome is “active; multisex active”.

Consider `O=[N+]([O-])c1ccc(Oc2ccc(Cl)cc2Cl)cc1`, for which the outcome is “active; multisite active; multisex active; multispecies active”.

`COC(=O)C1=C(C)NC(C)=C(C(=O)OCCN2CCN(C(c3ccccc3)c3ccccc3)CC2)C1c1cccc([N+](=O)[O-])c1` (centres undefined): the outcome is “inactive; multisex inactive; multispecies inactive”.

With `CCCCCN(N=O)C(=O)OCC`, the outcome was “active; multisite active”.

Regarding `CC1=C(C(=O)OCCN(Cc2ccccc2)c2ccccc2)C(c2cccc([N+](=O)[O-])c2)C(P2(=O)OCC(C)(C)CO2)=C(C)N1` (centres undefined), the outcome is “inactive; multisex inactive; multispecies inactive”.

As to `Cc1cc(O)c2c(c1O)C(=O)C13C(=C2O)C(=O)C2C(O)C1C1C(O)C3C(=O)C3=C(O)c4c(O)cc(C)c(O)c4C(=O)C321` (centres undefined), the outcome was “active; multisex active”.

With `CC(=O)NNc1ccc(CO)cc1`, the outcome is “active; multisite active; multisex active”.

With `O=[N+]([O-])c1ccc(NCCO)c(OCCO)c1`, the outcome was “inactive; multisex inactive; multispecies inactive”.

Take `NNC(N)=S`: the outcome is “inactive; multisex inactive; multispecies inactive”.

`O=C1C(Cl)=C(Cl)C(=O)c2ccccc21`: the outcome is “inactive; multisex inactive”.

Turning to `CC(=O)c1ccc(S(=O)(=O)NC(=O)NC2CCCCC2)cc1`, the outcome was “inactive; multisex inactive; multispecies inactive”.

On to `CC=O`, for which the outcome is “active; multisite active; multisex active; multispecies active”.

With `S=[Se]`, the outcome is “active; multisite active; multisex active; multispecies active”.

Regarding `O=C1c2ccccc2C(=O)c2c(O)cccc21`, the outcome is “active; multisite active”.

With `O=C(O)[C@@H]1[C@H](C(=O)O)[C@@]2(Cl)C(Cl)=C(Cl)[C@]1(Cl)C2(Cl)Cl`, the outcome was “active; multisite active; multisex active; multispecies active”.

For the compound `O=C(O)c1cc(N=Nc2ccc(S(=O)(=O)Nc3ccccn3)cc2)ccc1O`, the outcome is “active; multisite active; multisex active; multispecies active”.

For `CN(N=O)c1ncnc2c1ncn2[C@@H]1O[C@H](CO)[C@@H](O)[C@H]1O`, the outcome is “active; multisite active; multisex active”.

On to `Nc1c(Br)cc(Br)c2c1C(=O)c1ccccc1C2=O`, for which the outcome was “active; multisite active; multisex active; multispecies active”.

For `O=NN1CCCCCC1`, the outcome is “active; multisite active; multisex active”.

For `O=NN1CCCCC1c1cccnc1` (centres undefined), the outcome was “active; multisex active”.

Take `Nc1c(Cl)cc([N+](=O)[O-])cc1Cl`: the outcome was “inactive; multisex inactive”.

Consider `C[C@]12CC[C@H]3C(=CCc4cc(OS(=O)(=O)O)ccc43)[C@@H]1CCC2=O`, for which the outcome is “inactive; multisex inactive”.

For the compound `CC1=CC(=C(c2ccc(N)cc2)c2ccc(N)cc2)C=CC1=N`, the outcome was “inactive; multisex inactive; multispecies inactive”.

Turning to `CCOP(=S)(OCC)Oc1nc(Cl)c(Cl)cc1Cl`, the outcome was “inactive; multisex inactive”.

For `[O-]/[N+](=N\O)c1ccccc1`, the outcome is “active; multisite active; multisex active; multispecies active”.

Regarding `[O-][Br+2]([O-])O`, the outcome is “active; multisite active; multisex active; multispecies active”.

For `Cc1ccc(S(=O)(=O)NC(=O)NN2CCCCCC2)cc1`, the outcome is “inactive; multisex inactive; multispecies inactive”.

`O=[N+]([O-])c1ccc2ccc3cccc4ccc1c2c34`: the outcome was “active; multisite active”.

Regarding `CCNC(=O)Nc1ncc([N+](=O)[O-])s1`, the outcome is “active; multisite active; multisex active; multispecies active”.

For `c1ccc(Nc2ccc(Nc3ccccc3)cc2)cc1`, the outcome was “inactive; multisex inactive; multispecies inactive”.

As for `Nc1nc(/C=C/c2ccc([N+](=O)[O-])o2)no1`, the outcome is “active; multisite active; multisex active”.

As for `COc1ccc([C@@H]2CC(=O)c3c(O)cc(O[C@@H]4O[C@H](CO[C@@H]5O[C@@H](C)[C@H](O)[C@@H](O)[C@H]5O)[C@@H](O)[C@H](O)[C@H]4O)cc3O2)cc1OC`, the outcome is “inactive; multisex inactive”.

As for `ClC(Cl)=C(Cl)C(Cl)=C(Cl)Cl`, the outcome is “active; multisex active”.

As to `Cc1cc(C)nc(-c2ccc([N+](=O)[O-])o2)n1`, the outcome is “active; multisite active”.

With `Cc1ccc2c(-c3cccc(O)c3)nc(=O)n(C(C)C)c2c1`, the outcome is “inactive; multisex inactive; multispecies inactive”.

For `CC(CN1c2ccccc2Sc2ccccc21)N(C)C` (centres undefined), the outcome is “inactive; multisex inactive; multispecies inactive”.

As to `CC1=C(C(=O)OC(C)C)C(c2cccc([N+](=O)[O-])c2)C(C(=O)OC2CN(C(c3ccccc3)c3ccccc3)C2)=C(N)N1` (centres undefined), the outcome is “inactive; multisex inactive; multispecies inactive”.

As for `S=C=Nc1ccccc1`, the outcome is “inactive; multisex inactive”.

Regarding `C/C=C/c1ccc2c(c1)OCO2`, the outcome was “inactive; multisex inactive”.

As to `O=C1CCO1`, the outcome was “active; multisex active; multispecies active”.

Regarding `CCOC(=O)N(CC)N=O`, the outcome was “active; multisite active”.

In the case of `COC(=O)c1ccc(C(=O)OC)cc1`, the outcome was “inactive; multisex inactive; multispecies inactive”.

For `COc1ccccc1N1CCN(CCCNc2cc(=O)n(C)c(=O)n2C)CC1`, the outcome was “inactive; multisex inactive”.

For the compound `C[C@@H]1CCC[C@H](C)N1CCCC(O)(c1ccccc1)c1ccccn1` (some centres undefined), the outcome is “inactive; multisex inactive; multispecies inactive”.

For the compound `CC(=O)Nc1ccc(O)cc1`, the outcome was “active; multisite active; multisex active; multispecies active”.

`CCCCCNN`: the outcome was “active; multisite active”.

As for `O=C1NCCN1`, the outcome was “inactive; multisex inactive”.

Regarding `C[N+](C)(C)CCCl`, the outcome is “inactive; multisex inactive; multispecies inactive”.

On to `CCCCCCCCCC[N+](C)(C)[O-]`, for which the outcome was “inactive; multisex inactive”.

As to `Cc1ccc(Cc2cnc(NCCSCc3ccc(CN(C)C)o3)[nH]c2=O)cn1`, the outcome is “active; multisex active”.

Consider `C[N+](=O)[O-]`, for which the outcome was “active; multisite active; multisex active; multispecies active”.

With `NC(=S)NNC(N)=S`, the outcome is “inactive; multisex inactive; multispecies inactive”.

`CN[C@H]1CC[C@@H](c2ccc(Cl)c(Cl)c2)c2ccccc21`: the outcome was “inactive; multisex inactive; multispecies inactive”.

Turning to `CC(O)CN(CCO)N=O` (centres undefined), the outcome is “active; multisite active”.

For the compound `CCCCCCCCCCCC[N+](C)(C)[O-]`, the outcome is “inactive; multisex inactive”.

For the compound `CCC1C(=O)OCC1Cc1cncn1C` (centres undefined), the outcome was “inactive; multisex inactive”.

For `O=NN1CCCC1c1ccc[n+]([O-])c1` (centres undefined), the outcome is “active; multisite active; multisex active”.

Consider `Nc1ncn([C@@H]2O[C@H](CO)[C@@H](O)[C@H]2O)c(=O)n1`, for which the outcome is “active; multisite active; multisex active; multispecies active”.

As for `ClCc1ccccc1`, the outcome is “active; multisex active”.

Consider `c1ccc2c(c1)cc1ccc3cccc4ccc2c1c34`, for which the outcome is “active; multisite active; multisex active; multispecies active”.

Take `N#Cc1ccc(C2CCCc3cncn32)cc1` (centres undefined): the outcome was “inactive; multisex inactive”.

Turning to `CC(C)Nc1nc(Cl)nc(NC(C)C)n1`, the outcome was “inactive; multisex inactive”.

As for `O=C(O)COc1cc(Cl)c(Cl)cc1Cl`, the outcome was “inactive; multisex inactive; multispecies inactive”.

As to `COC(=O)C(c1ccccc1)C1CCCCN1` (centres undefined), the outcome is “active; multisex active”.

Regarding `CCOc1ccc2c(c1)C(C)=CC(C)(C)N2`, the outcome was “inactive; multisex inactive”.

Consider `Cc1cn([C@H]2C[C@H](N=[N+]=[N-])[C@@H](CO)O2)c(=O)[nH]c1=O`, for which the outcome is “active; multispecies active”.

As for `C=CCCl`, the outcome was “inactive; multisex inactive”.

Consider `C=CC(N)=O`, for which the outcome was “active; multisite active; multisex active”.

Regarding `Clc1ccc2c(c1)C(c1ccccc1)=NCc1nncn1-2`, the outcome was “inactive; multisex inactive; multispecies inactive”.

For the compound `CCOC(N)=O`, the outcome was “active; multisite active; multisex active; multispecies active”.

In the case of `c1ccc2cc(Nc3ccc(Nc4ccc5ccccc5c4)cc3)ccc2c1`, the outcome is “inactive; multisex inactive”.

Take `c1ccc2c(c1)[nH]c1ccccc12`: the outcome was “active; multisite active; multisex active”.
